Experimental findings from ChEMBL document CHEMBL4840377, “Colletofragarone A2 and Colletoins A-C from a Fungus Colletotrichum sp. Decrease Mutant p53 Levels in Cells” (J Nat Prod, 2021) are described below.

One test deals with SAOS-2. Kind of test: Cytotoxicity against human SAOS-2 cells harbouring p53 R175H mutant incubated for 3 days by MTT assay. It is filed as functional, cell-based. The note with it: SAOS-2, 72 h.
Test [1] in a line: Reduction in p53 R175H mutant protein level in human SAOS-2 cells assessed as ratio of test compound fluorescence to control fluorescence at 2 uM measured after 2 hrs by Hoechst 33342 staining based immunofluorescence assay. Type of test: functional.

As for `C/C=C/C=C/C=C/C1=C2C(=O)O[C@@H](C)C[C@@H](O)C[C@@H](O)[C@H]3C(=O)C[C@@H](O)[C@H](O1)[C@H]23`, the midpoint of inhibition in the test on SAOS-2, the IC50, lay at 12 µM. In other words, the double-digit micromolar range.

With `C/C=C/C=C/C=C/C1=C2C(=O)O[C@@H](C)C[C@@H](O)C[C@@H](O)[C@@H]3C(=O)C=C[C@H](O1)[C@H]23`, the Ratio in test [1] is listed as 0.4. For the same molecule, in the test on SAOS-2, the IC50 (as a rule, the concentration needed to halve the response being measured) is 0.35 µM. Consider `C/C=C/C=C\C=C\C1=C2C(=O)O[C@@H](C)CCCC[C@@H]3C(=O)C=C[C@H](O1)[C@H]23`, for which the Ratio in test [1] is on record as 0.57. Further, the IC50 in the test with SAOS-2 was 0.36 µM. Consider `C/C=C/C=C/C=C/C1=C2C(=O)O[C@@H](C)C[C@@H](O)C[C@@H](O)[C@@H]3C(=O)C[C@@H](O)[C@H](O1)[C@H]23`, for which inhibition in the test on SAOS-2 was half-maximal at 21 µM (IC50).
